Experimental data taken from paper PMC5933747 (PLoS ONE, 2018).
Like-named read-outs stand apart in the source and are kept apart here.

Experiments:
Format in all cases: cell-based
human NaV1.7 = human NaV1.7 (Homo sapiens, UniProt Q15858); experiment: IonWorks Quattro (IWQ) electrophysiology, human NaV1.7; conditions: read-out: Ala mutant IWQ IC50 NaV1.7
human NaV1.4 = human NaV1.4 (Homo sapiens, UniProt P35499); experiment: IonWorks Quattro (IWQ) electrophysiology, human NaV1.4
human NaV1.5 = human NaV1.5 (Homo sapiens, UniProt Q14524); experiment: IonWorks Quattro (IWQ) electrophysiology, human NaV1.5
human NaV1.5, sequence (Q14524 whole entry): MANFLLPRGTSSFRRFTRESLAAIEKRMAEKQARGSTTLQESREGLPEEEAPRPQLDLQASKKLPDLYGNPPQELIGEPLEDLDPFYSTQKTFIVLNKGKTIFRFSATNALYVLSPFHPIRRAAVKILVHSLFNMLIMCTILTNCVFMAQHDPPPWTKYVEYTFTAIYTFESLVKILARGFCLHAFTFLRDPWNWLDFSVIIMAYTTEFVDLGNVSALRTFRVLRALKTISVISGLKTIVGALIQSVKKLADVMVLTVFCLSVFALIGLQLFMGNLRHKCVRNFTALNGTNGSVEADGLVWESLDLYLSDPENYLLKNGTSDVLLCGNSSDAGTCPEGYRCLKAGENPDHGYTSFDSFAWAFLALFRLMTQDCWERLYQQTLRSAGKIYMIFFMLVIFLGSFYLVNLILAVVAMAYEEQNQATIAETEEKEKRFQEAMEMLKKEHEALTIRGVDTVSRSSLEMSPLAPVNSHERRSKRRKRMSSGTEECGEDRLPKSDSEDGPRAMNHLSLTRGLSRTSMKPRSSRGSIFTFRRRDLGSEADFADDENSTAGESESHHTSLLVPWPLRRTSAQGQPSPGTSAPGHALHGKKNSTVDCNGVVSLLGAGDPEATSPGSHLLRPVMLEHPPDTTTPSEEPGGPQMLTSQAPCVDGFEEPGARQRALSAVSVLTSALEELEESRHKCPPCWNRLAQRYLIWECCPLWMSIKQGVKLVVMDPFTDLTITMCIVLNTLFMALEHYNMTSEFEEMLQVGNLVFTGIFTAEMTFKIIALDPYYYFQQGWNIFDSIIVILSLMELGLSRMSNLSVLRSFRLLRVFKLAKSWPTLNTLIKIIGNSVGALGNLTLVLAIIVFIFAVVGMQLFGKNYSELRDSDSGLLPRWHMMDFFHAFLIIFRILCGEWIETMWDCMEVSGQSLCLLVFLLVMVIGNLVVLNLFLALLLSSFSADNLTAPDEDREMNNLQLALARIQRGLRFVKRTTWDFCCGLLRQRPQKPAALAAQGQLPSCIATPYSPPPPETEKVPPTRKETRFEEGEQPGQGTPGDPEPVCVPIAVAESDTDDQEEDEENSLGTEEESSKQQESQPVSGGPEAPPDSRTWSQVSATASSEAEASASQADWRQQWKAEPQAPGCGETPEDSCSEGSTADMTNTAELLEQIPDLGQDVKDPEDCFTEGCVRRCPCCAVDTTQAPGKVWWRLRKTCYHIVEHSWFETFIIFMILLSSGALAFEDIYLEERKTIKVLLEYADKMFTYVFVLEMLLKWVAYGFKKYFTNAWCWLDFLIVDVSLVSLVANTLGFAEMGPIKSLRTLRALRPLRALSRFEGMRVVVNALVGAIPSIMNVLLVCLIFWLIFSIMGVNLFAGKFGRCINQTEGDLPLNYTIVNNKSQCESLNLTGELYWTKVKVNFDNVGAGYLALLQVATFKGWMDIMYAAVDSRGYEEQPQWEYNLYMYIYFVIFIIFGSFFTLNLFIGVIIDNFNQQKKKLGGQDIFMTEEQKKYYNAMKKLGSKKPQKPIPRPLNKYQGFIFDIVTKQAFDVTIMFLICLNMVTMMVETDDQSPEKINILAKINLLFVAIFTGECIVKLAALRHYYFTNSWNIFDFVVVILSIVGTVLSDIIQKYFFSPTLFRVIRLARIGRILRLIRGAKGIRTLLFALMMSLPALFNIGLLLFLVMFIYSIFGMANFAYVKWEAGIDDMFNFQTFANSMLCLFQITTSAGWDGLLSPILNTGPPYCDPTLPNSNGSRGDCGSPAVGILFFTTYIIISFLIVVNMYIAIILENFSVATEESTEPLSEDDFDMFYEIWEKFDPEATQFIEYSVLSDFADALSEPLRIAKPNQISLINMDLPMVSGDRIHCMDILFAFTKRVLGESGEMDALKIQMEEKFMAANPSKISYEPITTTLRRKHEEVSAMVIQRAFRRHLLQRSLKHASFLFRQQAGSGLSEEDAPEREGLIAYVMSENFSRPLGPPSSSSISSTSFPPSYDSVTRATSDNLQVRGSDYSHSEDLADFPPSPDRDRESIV

[1] = read-out: Ala mutant IWQ IC50 NaV1.4
[2] = human, read-out: Ala mutant IWQ IC50 NaV1.5
[3] = IWQ platform, single-residue Ala scan of JzTx-V, read-out: Ala mutant IWQ IC50 NaV1.5
[4] = human, read-out: Glu mutant IWQ IC50 NaV1.5

human NaV1.4, sequence (P35499 whole entry): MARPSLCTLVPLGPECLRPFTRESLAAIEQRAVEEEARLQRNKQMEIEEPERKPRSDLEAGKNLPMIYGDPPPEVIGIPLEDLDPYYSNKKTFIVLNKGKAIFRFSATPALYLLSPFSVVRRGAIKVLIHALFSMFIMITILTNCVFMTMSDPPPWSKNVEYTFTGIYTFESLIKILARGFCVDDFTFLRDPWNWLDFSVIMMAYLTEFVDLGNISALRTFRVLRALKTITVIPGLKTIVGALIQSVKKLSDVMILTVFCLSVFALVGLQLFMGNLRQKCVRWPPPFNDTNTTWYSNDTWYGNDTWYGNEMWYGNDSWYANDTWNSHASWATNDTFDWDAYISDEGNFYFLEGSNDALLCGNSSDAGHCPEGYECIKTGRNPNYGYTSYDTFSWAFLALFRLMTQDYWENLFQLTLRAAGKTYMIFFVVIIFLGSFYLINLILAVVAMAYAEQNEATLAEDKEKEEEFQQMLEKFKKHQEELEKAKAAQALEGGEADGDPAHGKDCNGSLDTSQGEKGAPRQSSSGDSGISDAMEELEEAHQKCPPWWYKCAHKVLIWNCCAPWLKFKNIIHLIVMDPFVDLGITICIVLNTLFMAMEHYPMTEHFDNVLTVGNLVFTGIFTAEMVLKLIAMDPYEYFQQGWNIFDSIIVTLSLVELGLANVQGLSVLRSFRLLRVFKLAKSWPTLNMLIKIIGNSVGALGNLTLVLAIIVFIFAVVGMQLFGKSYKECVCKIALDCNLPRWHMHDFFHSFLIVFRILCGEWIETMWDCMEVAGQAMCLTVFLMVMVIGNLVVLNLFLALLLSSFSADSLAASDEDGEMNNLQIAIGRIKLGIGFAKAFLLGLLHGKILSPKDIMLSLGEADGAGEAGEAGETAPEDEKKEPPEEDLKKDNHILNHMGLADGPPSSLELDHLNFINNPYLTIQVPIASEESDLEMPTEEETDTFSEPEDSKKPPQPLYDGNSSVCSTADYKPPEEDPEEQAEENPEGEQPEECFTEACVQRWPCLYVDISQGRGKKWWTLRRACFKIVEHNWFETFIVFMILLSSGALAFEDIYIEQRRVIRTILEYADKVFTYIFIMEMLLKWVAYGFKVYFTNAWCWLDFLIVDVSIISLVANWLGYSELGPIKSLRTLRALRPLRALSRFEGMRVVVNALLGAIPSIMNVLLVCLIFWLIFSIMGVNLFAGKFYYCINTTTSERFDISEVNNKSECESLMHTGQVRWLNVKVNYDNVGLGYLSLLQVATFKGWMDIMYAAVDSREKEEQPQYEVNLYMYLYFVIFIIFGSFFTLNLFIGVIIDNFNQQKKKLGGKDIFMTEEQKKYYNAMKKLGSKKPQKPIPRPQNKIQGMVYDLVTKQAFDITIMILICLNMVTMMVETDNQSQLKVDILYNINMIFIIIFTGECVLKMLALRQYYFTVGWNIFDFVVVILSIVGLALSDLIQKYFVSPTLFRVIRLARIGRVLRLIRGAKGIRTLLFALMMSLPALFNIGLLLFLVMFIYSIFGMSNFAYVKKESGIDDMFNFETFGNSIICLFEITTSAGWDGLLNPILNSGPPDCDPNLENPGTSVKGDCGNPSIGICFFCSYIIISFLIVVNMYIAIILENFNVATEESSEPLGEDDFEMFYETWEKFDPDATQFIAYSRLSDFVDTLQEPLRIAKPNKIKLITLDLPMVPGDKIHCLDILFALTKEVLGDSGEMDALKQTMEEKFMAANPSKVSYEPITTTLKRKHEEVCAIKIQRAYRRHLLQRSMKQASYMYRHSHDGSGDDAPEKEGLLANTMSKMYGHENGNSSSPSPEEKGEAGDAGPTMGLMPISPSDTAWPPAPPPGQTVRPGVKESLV

Compound	IC50 (human NaV1.4; [1]) [nM]	IC50 (human NaV1.5; [2]) [µM]	IC50 (human NaV1.5; [4]) [µM]	further results
CC[C@H](C)[C@H](NC(=O)[C@@H](NC(=O)[C@H](CCCCN)NC(=O)[C@H](CCCNC(=N)N)NC(=O)[C@@H]1CSSC[C@@H]2NC(=O)[C@H](C)NC(=O)[C@H](CCCNC(=N)N)NC(=O)[C@H](CCCCN)NC(=O)[C@H](CO)NC(=O)[C@H](C)NC(=O)[C@@H]3CSSC[C@H](NC(=O)[C@H](CCCNC(=N)N)NC(=O)[C@H](CC(C)C)NC(=O)CNC(=O)[C@H](CCC(=O)O)NC(=O)[C@H](CSSC[C@H](NC(=O)[C@@H](N)Cc4ccc(O)cc4)C(=O)N[C@@H](CCC(N)=O)C(=O)N[C@@H](CCCCN)C(=O)N[C@@H](Cc4c[nH]c5ccccc45)C(=O)N[C@@H](CCSC)C(=O)N[C@@H](Cc4c[nH]c5ccccc45)C(=O)N[C@@H]([C@@H](C)O)C(=O)N3)NC2=O)C(=O)N[C@@H](CCCCN)C(=O)N[C@@H](CC(C)C)C(=O)N[C@@H](Cc2c[nH]c3ccccc23)C(=O)N1)[C@@H](C)CC)C(N)=O [D10 Ala mutant]	917			IC50 (human NaV1.7): 345 nM; IC50 (human NaV1.5; read-out: Ala mutant IWQ IC50 NaV1.5): > 10 µM
CC[C@H](C)[C@H](NC(=O)[C@@H](NC(=O)[C@H](CCCCN)NC(=O)[C@H](CCCNC(=N)N)NC(=O)[C@@H]1CSSC[C@@H]2NC(=O)[C@H](C)NC(=O)[C@H](CCCNC(=N)N)NC(=O)[C@H](CCCCN)NC(=O)[C@H](CO)NC(=O)[C@H](CC(=O)O)NC(=O)[C@@H]3CSSC[C@H](NC(=O)[C@H](CCCNC(=N)N)NC(=O)[C@H](CC(C)C)NC(=O)[C@H](C)NC(=O)[C@H](CCC(=O)O)NC(=O)[C@H](CSSC[C@H](NC(=O)[C@@H](N)Cc4ccc(O)cc4)C(=O)N[C@@H](CCC(N)=O)C(=O)N[C@@H](CCCCN)C(=O)N[C@@H](Cc4c[nH]c5ccccc45)C(=O)N[C@@H](CCSC)C(=O)N[C@@H](Cc4c[nH]c5ccccc45)C(=O)N[C@@H]([C@@H](C)O)C(=O)N3)NC2=O)C(=O)N[C@@H](CCCCN)C(=O)N[C@@H](CC(C)C)C(=O)N[C@@H](Cc2c[nH]c3ccccc23)C(=O)N1)[C@@H](C)CC)C(N)=O [G18 Ala mutant]	265	> 5		
CC[C@H](C)[C@H](NC(=O)[C@@H](NC(=O)[C@H](CCCCN)NC(=O)[C@H](CCCNC(=N)N)NC(=O)[C@@H]1CSSC[C@@H]2NC(=O)[C@H](C)NC(=O)[C@H](CCCNC(=N)N)NC(=O)[C@H](CCCCN)NC(=O)[C@H](CO)NC(=O)[C@H](CC(=O)O)NC(=O)[C@@H]3CSSC[C@H](NC(=O)[C@H](C)NC(=O)[C@H](CC(C)C)NC(=O)CNC(=O)[C@H](CCC(=O)O)NC(=O)[C@H](CSSC[C@H](NC(=O)[C@@H](N)Cc4ccc(O)cc4)C(=O)N[C@@H](CCC(N)=O)C(=O)N[C@@H](CCCCN)C(=O)N[C@@H](Cc4c[nH]c5ccccc45)C(=O)N[C@@H](CCSC)C(=O)N[C@@H](Cc4c[nH]c5ccccc45)C(=O)N[C@@H]([C@@H](C)O)C(=O)N3)NC2=O)C(=O)N[C@@H](CCCCN)C(=O)N[C@@H](CC(C)C)C(=O)N[C@@H](Cc2c[nH]c3ccccc23)C(=O)N1)[C@@H](C)CC)C(N)=O [R20 Ala mutant]	425	4.64		
CC[C@H](C)[C@H](NC(=O)[C@@H](NC(=O)[C@H](CCCCN)NC(=O)[C@H](CCCNC(=N)N)NC(=O)[C@@H]1CSSC[C@@H]2NC(=O)[C@H](C)NC(=O)[C@H](CCCNC(=N)N)NC(=O)[C@H](CCCCN)NC(=O)[C@H](C)NC(=O)[C@H](CC(=O)O)NC(=O)[C@@H]3CSSC[C@H](NC(=O)[C@H](CCCNC(=N)N)NC(=O)[C@H](CC(C)C)NC(=O)CNC(=O)[C@H](CCC(=O)O)NC(=O)[C@H](CSSC[C@H](NC(=O)[C@@H](N)Cc4ccc(O)cc4)C(=O)N[C@@H](CCC(N)=O)C(=O)N[C@@H](CCCCN)C(=O)N[C@@H](Cc4c[nH]c5ccccc45)C(=O)N[C@@H](CCSC)C(=O)N[C@@H](Cc4c[nH]c5ccccc45)C(=O)N[C@@H]([C@@H](C)O)C(=O)N3)NC2=O)C(=O)N[C@@H](CCCCN)C(=O)N[C@@H](CC(C)C)C(=O)N[C@@H](Cc2c[nH]c3ccccc23)C(=O)N1)[C@@H](C)CC)C(N)=O [S11 Ala mutant]				IC50 (human NaV1.5; [3]): 3.56 µM
CC[C@H](C)[C@H](NC(=O)[C@@H](NC(=O)[C@H](CCCCN)NC(=O)[C@H](CCCNC(=N)N)NC(=O)[C@@H]1CSSC[C@@H]2NC(=O)[C@H](C)NC(=O)[C@H](CCCNC(=N)N)NC(=O)[C@H](CCCCN)NC(=O)[C@H](CCC(=O)O)NC(=O)[C@H](CC(=O)O)NC(=O)[C@@H]3CSSC[C@H](NC(=O)[C@H](CCCNC(=N)N)NC(=O)[C@H](CC(C)C)NC(=O)CNC(=O)[C@H](CCC(=O)O)NC(=O)[C@H](CSSC[C@H](NC(=O)[C@@H](N)Cc4ccc(O)cc4)C(=O)N[C@@H](CCC(N)=O)C(=O)N[C@@H](CCCCN)C(=O)N[C@@H](Cc4c[nH]c5ccccc45)C(=O)N[C@@H](CCSC)C(=O)N[C@@H](Cc4c[nH]c5ccccc45)C(=O)N[C@@H]([C@@H](C)O)C(=O)N3)NC2=O)C(=O)N[C@@H](CCCCN)C(=O)N[C@@H](CC(C)C)C(=O)N[C@@H](Cc2c[nH]c3ccccc23)C(=O)N1)[C@@H](C)CC)C(N)=O [S11 Glu mutant]			> 5	
CC[C@H](C)[C@H](NC(=O)[C@@H](NC(=O)[C@H](CCCCN)NC(=O)[C@H](CCCNC(=N)N)NC(=O)[C@@H]1CSSC[C@@H]2NC(=O)[C@H](C)NC(=O)[C@H](CCCNC(=N)N)NC(=O)[C@H](CCCCN)NC(=O)[C@H](CO)NC(=O)[C@H](CC(=O)O)NC(=O)[C@@H]3CSSC[C@H](NC(=O)[C@H](CCCNC(=N)N)NC(=O)[C@H](CC(C)C)NC(=O)CNC(=O)[C@H](CCC(=O)O)NC(=O)[C@H](CSSC[C@H](NC(=O)[C@@H](N)Cc4ccc(O)cc4)C(=O)N[C@@H](CCC(N)=O)C(=O)N[C@@H](CCCCN)C(=O)N[C@@H](Cc4c[nH]c5ccccc45)C(=O)N[C@@H](CCSC)C(=O)N[C@@H](Cc4c[nH]c5ccccc45)C(=O)N[C@@H](C)C(=O)N3)NC2=O)C(=O)N[C@@H](CCCCN)C(=O)N[C@@H](CC(C)C)C(=O)N[C@@H](Cc2c[nH]c3ccccc23)C(=O)N1)[C@@H](C)CC)C(N)=O [T8 Ala mutant]		> 5		
CC[C@H](C)[C@H](NC(=O)[C@@H](NC(=O)[C@H](CCCCN)NC(=O)[C@H](CCCNC(=N)N)NC(=O)[C@@H]1CSSC[C@@H]2NC(=O)[C@H](C)NC(=O)[C@H](CCCNC(=N)N)NC(=O)[C@H](CCCCN)NC(=O)[C@H](CO)NC(=O)[C@H](CC(=O)O)NC(=O)[C@@H]3CSSC[C@H](NC(=O)[C@H](CCCNC(=N)N)NC(=O)[C@H](CC(C)C)NC(=O)CNC(=O)[C@H](CCC(=O)O)NC(=O)[C@H](CSSC[C@H](NC(=O)[C@@H](N)Cc4ccc(O)cc4)C(=O)N[C@@H](CCC(N)=O)C(=O)N[C@@H](CCCCN)C(=O)N[C@@H](Cc4c[nH]c5ccccc45)C(=O)N[C@@H](CCSC)C(=O)N[C@@H](C)C(=O)N[C@@H]([C@@H](C)O)C(=O)N3)NC2=O)C(=O)N[C@@H](CCCCN)C(=O)N[C@@H](CC(C)C)C(=O)N[C@@H](Cc2c[nH]c3ccccc23)C(=O)N1)[C@@H](C)CC)C(N)=O [W7 Ala mutant]		> 5		
CC[C@H](C)[C@H](NC(=O)[C@@H](NC(=O)[C@H](CCCCN)NC(=O)[C@H](CCCNC(=N)N)NC(=O)[C@@H]1CSSC[C@@H]2NC(=O)[C@H](C)NC(=O)[C@H](CCCNC(=N)N)NC(=O)[C@H](CCCCN)NC(=O)[C@H](CO)NC(=O)[C@H](CC(=O)O)NC(=O)[C@@H]3CSSC[C@H](NC(=O)[C@H](CCCNC(=N)N)NC(=O)[C@H](CC(C)C)NC(=O)CNC(=O)[C@H](CCC(=O)O)NC(=O)[C@H](CSSC[C@H](NC(=O)[C@@H](N)Cc4ccc(O)cc4)C(=O)N[C@@H](CCC(N)=O)C(=O)N[C@@H](CCCCN)C(=O)N[C@@H](Cc4c[nH]c5ccccc45)C(=O)N[C@@H](CCSC)C(=O)N[C@@H](CCC(=O)O)C(=O)N[C@@H]([C@@H](C)O)C(=O)N3)NC2=O)C(=O)N[C@@H](CCCCN)C(=O)N[C@@H](CC(C)C)C(=O)N[C@@H](Cc2c[nH]c3ccccc23)C(=O)N1)[C@@H](C)CC)C(N)=O [W7 Glu mutant]			> 5	
CC[C@H](C)[C@H](NC(=O)[C@@H](NC(=O)[C@H](CCCCN)NC(=O)[C@H](CCCNC(=N)N)NC(=O)[C@@H]1CSSC[C@@H]2NC(=O)[C@H](C)NC(=O)[C@H](CCCNC(=N)N)NC(=O)[C@H](CCCCN)NC(=O)[C@H](CO)NC(=O)[C@H](CC(=O)O)NC(=O)[C@@H]3CSSC[C@H](NC(=O)[C@H](CCCNC(=N)N)NC(=O)[C@H](CC(C)C)NC(=O)CNC(=O)[C@H](CCC(=O)O)NC(=O)[C@H](CSSC[C@H](NC(=O)[C@H](C)N)C(=O)N[C@@H](CCC(N)=O)C(=O)N[C@@H](CCCCN)C(=O)N[C@@H](Cc4c[nH]c5ccccc45)C(=O)N[C@@H](CCSC)C(=O)N[C@@H](Cc4c[nH]c5ccccc45)C(=O)N[C@@H]([C@@H](C)O)C(=O)N3)NC2=O)C(=O)N[C@@H](CCCCN)C(=O)N[C@@H](CC(C)C)C(=O)N[C@@H](Cc2c[nH]c3ccccc23)C(=O)N1)[C@@H](C)CC)C(N)=O [Y1 Ala mutant]				IC50 (human NaV1.5; [3]): 3.07 µM
CC[C@H](C)[C@H](NC(=O)[C@@H](NC(=O)[C@H](CCCCN)NC(=O)[C@H](CCCNC(=N)N)NC(=O)[C@@H]1CSSC[C@@H]2NC(=O)[C@H](C)NC(=O)[C@H](CCCNC(=N)N)NC(=O)[C@H](CCCCN)NC(=O)[C@H](CO)NC(=O)[C@H](CC(=O)O)NC(=O)[C@@H]3CSSC[C@H](NC(=O)[C@H](CCCNC(=N)N)NC(=O)[C@H](CC(C)C)NC(=O)CNC(=O)[C@H](CCC(=O)O)NC(=O)[C@H](CSSC[C@H](NC(=O)[C@@H](N)CCC(=O)O)C(=O)N[C@@H](CCC(N)=O)C(=O)N[C@@H](CCCCN)C(=O)N[C@@H](Cc4c[nH]c5ccccc45)C(=O)N[C@@H](CCSC)C(=O)N[C@@H](Cc4c[nH]c5ccccc45)C(=O)N[C@@H]([C@@H](C)O)C(=O)N3)NC2=O)C(=O)N[C@@H](CCCCN)C(=O)N[C@@H](CC(C)C)C(=O)N[C@@H](Cc2c[nH]c3ccccc23)C(=O)N1)[C@@H](C)CC)C(N)=O [Y1 Glu mutant]			> 5	IC50 (human NaV1.4; read-out: Glu mutant IWQ IC50 NaV1.4): 235 nM
